Test results from patent publication EP4806445A1, “USE OF COMPOSITION FOR PREVENTING, ALLEVIATING OR TREATING DIABETIC KIDNEY DISEASE COMPRISING ZINC SALT AND CYCLO-HISPRO AS ACTIVE INGREDIENTS” (Novmetapharma Co., Ltd., priority 2023, dated 2025).

Experiments:
Assay type in all cases: in vivo
[1] = test system: KKAy mice; test: Measurement of urine albumin (albuminuria) in diabetic kidney disease model; settings: week 16 of administration; for albuminuria: 24-hour urine, losartan 20 mg/kg in drinking water, dapagliflozin 2 mg/kg, CycloZ 15 mg/kg oral daily, negative control 51.4; for decrease in albuminuria compared to the negative control group: same doses as E1
Description: Five-week-old KKay mice were purchased from Clea, Japan, and as a normal control group, five-week-old C57BL6/J mice were purchased from Daehan Bio Link Co., Ltd. Breeding was performed under constant conditions (temperature: 22±2 °C, relative humidity: 55±10%, circadian cycle: 12 hours), and Purina mouse diet was used as feed and distilled water was used as drinking water. Mice were used in the experiment after a one-week adaptation period following purchase. Lorsartan used in the examples below was purchased from […], and dapagliflozin was purchased from Betapahrma. Metabolic cages were prepared using products from Jeongdo B&P Co., Ltd. Isoflurane, which is necessary for anesthesia and dissection of mice, was purchased from Hana Pharm Co., Ltd., and the RC2 Rodent Circuit Controller Anesthesia System from Vetequip was prepared. Phosphate buffered saline (PBS) was purchased from Hyclone. The KKAy animal model is known to have 10-50 times higher proteinuria (albuminuria) than the db/db animal model, and is reported to show the most severe mesangial matrix expansion among all models. […] The normal control group and the negative control group were orally administered the same amount of distilled water daily. [Table 1] At week 16 of administration, 24-hour urine was collected using a metabolic cage and centrifuged at 2,000 rpm for 10 minutes to remove suspended solids. Albumin was measured with a DCA vantage analyzer (Siemens) and DCA® Microalbumin/Creatinine Urine Test cartridge (Siemens) using urine diluted 1/10 with distilled water.

[2] = test system: KKAy mice; test: ACR, drug administration from severe condition, CycloZ, losartan and/or sitagliptin (Example 4); settings: week 9
Description: (§1) At week 11 of administration, 24-hour urine was collected using a metabolic cage and centrifuged at 1,000 rpm for 5 minutes to remove suspended solids. Albumin was measured with a DCA vantage analyzer (Siemens) and DCA® Microalbumin/Creatinine Urine Test cartridge (Siemens) using urine diluted 1/2 with distilled water. Creatinine was measured using undiluted urine and a mouse creatinine assay kit (Crystalchem). The measured albumin (mg/dL) value was divided by the creatinine (g/dL) value to derive the ACR (mg/g) value.
(§2) After breeding five-week-old KKAy mice of Example 1-1 for 6 weeks, urine was collected for 24 hours and ACR was measured using the same method as in Example 3-2. The groups were randomly divided as shown in Table 5 so that the average ACR values were the same, and then the drug was orally administered daily for 9 weeks from the age of 12 weeks as shown in Table 5. At this time, losartan was dissolved in drinking water to allow a daily intake of 20 mg/kg per subject, and the remaining drugs were orally administered daily.
At week 9 of administration, 24-hour urine was collected using a metabolic cage, and ACR was measured using the same method as in Example 3-2.

[3] = test system: KKAy mice; test: ACR, drug administration from severe condition, CycloZ and/or metformin (Example 5); settings: week 12
Description: as §1
as §2, with “6” for “5”, “12” for “9”, “6.” for “5. At this time, losartan was dissolved in drinking water to allow a daily intake of 20 mg/kg per subject, and the remaining drugs were orally administered daily.”
At week 12 of administration, 24-hour urine was collected using a metabolic cage, and ACR was measured using the same method as in Example 3-2.

[4] = test system: KKAy mice; test: ACR, drug administration from mild condition (Example 3-1/3-2); settings: administration from mild stage, week 11
Description: Five-week-old KKAy mice of Example 1-1 were pre-bred for one week and then divided into groups as shown in Table 1 so that the average body weights were the same. The control group was orally administered distilled water for 11 weeks, while Group 1 was orally administered 15 mg/kg of CycloZ, Group 2 was orally administered 10 mg/kg of sitagliptin, and Group 3 was orally administered 10 mg/kg of sitagliptin + 15 mg/kg of CycloZ daily for the same period.
as §1

[5] = test system: KKAy mice; test: ACR, drug administration from severe condition, CycloZ and/or sitagliptin (Example 3-3/3-4); settings: week 11
Description: as §1
as §2, with “4” for “5”, “11” for “9”, “4.” for “5. At this time, losartan was dissolved in drinking water to allow a daily intake of 20 mg/kg per subject, and the remaining drugs were orally administered daily.”
At week 11 of administration, 24-hour urine was collected using a metabolic cage, and ACR was measured using the same method as in Example 3-2.

[6] = administration from severe stage

Question: Which results are given for `CCOc1ccc(Cc2cc([C@@H]3O[C@H](CO)[C@@H](O)[C@H](O)[C@H]3O)ccc2Cl)cc1` [Dapagliflozin, dapagliflozin]?
Answer: albuminuria [1]: 31.1 mg/dL; decrease in albuminuria compared to the negative control group [1]: 39.5%

Question: How did the albuminuria [1] turn out when `CCCCc1nc(Cl)c(CO)n1Cc1ccc(-c2ccccc2-c2nn[nH]n2)cc1` [Losartan, losartan] was run?
Answer: The albuminuria was 39.3 mg/dL.

Question: And the “decrease in albuminuria compared to the negative control group” value [1]?
Answer: The value was 23.5%.

Question: And the ACR ([2]; administration from severe stage (age 12 weeks), CycloZ 15 mg/kg, losartan 20 mg/kg in drinking water, sitagliptin 10 mg/kg, negative control 7,118)?
Answer: The ACR was 7,158 mg/g.

Question: And the “effect on alleviating ACR (result in words)” value [2, 6]?
Answer: The value was “did not show a significant effect on alleviating ACR”.

Question: How did the ACR ([3]; administration from severe stage (age 12 weeks), CycloZ 15 mg/kg, metformin 200 mg/kg oral daily, negative control 2,369) turn out when `CN(C)C(=N)N=C(N)N` [Metformin, metformin] was run?
Answer: The ACR was 2,952 mg/g.

Question: What about the “effect on alleviating ACR (result in words)” value [3, 6] of the same compound?
Answer: Its value is “did not show a significant effect on alleviating ACR”.

Question: What does the source list for `N[C@@H](CC(=O)N1CCn2c(nnc2C(F)(F)F)C1)Cc1cc(F)c(F)cc1F` [Sitagliptin, sitagliptin]?
Answer: ACR reduced compared to the control group [4]: ~24%; ACR ([4]; CycloZ 15 mg/kg, sitagliptin 10 mg/kg oral daily, negative control 6,379): 4,852 mg/g; ACR ([5]; administration from severe stage (age 12 weeks), CycloZ 15 mg/kg, sitagliptin 10 mg/kg oral daily, negative control 4,450): 2,301 mg/g; ACR decrease compared to the negative control group [5, 6]: 48%
